Laboratory results: patent US4132786A, “N-Substituted 2-methoxybenzenesulphonamides and medicaments containing them” (priority 1975, dated 1979)

How the values were obtained:
[1] = Determination of acute toxicity (LD50), intravenous, male mice; settings: mouse, in vivo, 5 mice per batch, 6 days
Procedure: The acute toxicity of the compounds according to the invention was determined on male mice whose weight varied between 24 and 26 g. The compounds are administered intravenously in solution form and at the rate of 0.5 ml per 20 g of body weight, by varying the concentration of the injected solution.
Each compound is tested on a batch of 5 mice which are examined for 6 days following the injection.

apomorphine = test: Determination of central antiemetic activity (apomorphine vomiting); format: in vivo, Beagle dogs; settings: 1 mg/kg intramuscular; for Antiemetic effect /22 (average number of vomitings for two dogs): 30 min before 0.1 mg/kg apomorphine s.c., counted 30 min, controls 22
Procedure: These tests were carried out on adult Beagle dogs with a weight of 7 to 12 kg and which had gone without food for 18 hours. The dogs receive a dose of 1 mg/kg (0.1 ml/kg) of the compound according to the invention by intramuscular injection. 30 minutes later, 0.1 mg/kg (0.1 ml/kg) of apomorphine is administered to them subcutaneously as a central compound. The vomitings during the 30 minutes following the injection of apomorphine are counted. For two dogs serving as controls and receiving only the apomorphine 22 vomitings were counted. […] The results were confirmed by alternate tests by resuming these tests and interchanging the control dogs and the dogs on which the compounds according to the invention were previously tried.
The results relating to the toxicity and the central antiemetic activity of the compounds given hereinbefore are stated clearly in the following Table. The antiemetic activity is expressed in the form of the average number of vomitings for two dogs and is to be compared with the number 22 obtained with the control animals.

cornea of rabbits = test: Local anesthetic activity by Regnier's method; format: in vivo; settings: in words
Procedure: This activity was measured on the cornea of rabbits by Regnier's method, described on particular in "Principes de la pharmacodynamie," pp. 204-206, Masson (1959).

pentetrazole = test: Anticonvulsive activity (pentetrazole convulsions); format: in vivo, mice; settings: 50 mg/kg i.p., pentetrazole 100 mg/kg i.p.
Procedure: The compounds according to the invention were tested for their anticonvulsive activity by following the procedure described hereinafter.
Each compound is administered intraperitoneally to a batch of mice at the rate of 50 mg of compound per kilogram of body weight. 30 minutes later the mice receive, still intraperitoneally, 100 mg/kg of pentetrazole.
The time of appearance of the first convulsions (clonic convulsions), that of the tonic convulsions (hyperextension) and the death of the mice is then measured. The injections of pentetrazole are carried out comparatively on control animals.

[2] = Solubility remark in the Toxicity column; format: physicochemical; settings: in words

Row | Compound | LD50 at 144 h [1] [mg/kg] | Antiemetic effect /22 (average number of vomitings for two dogs) (apomorphine) [vomitings] | further results
1 | CCN(CC)CCNS(=O)(=O)c1ccc([N+](=O)[O-])cc1OC | > 100 | 15 | –
2 | CCN(CC)CCNS(=O)(=O)c1ccc(N)cc1OC [Ref. b, 2-methoxy-4-amino-N-(2-diethylaminoethyl)benzenesulphonamide] | > 100 | 22 | local anesthetic action (cornea of rabbits): a certain local anesthetic action
3 | CCN(CC)CCCNS(=O)(=O)c1ccc(N)cc1OC [Ref. c, 2-methoxy-4-amino-N-(3-diethylaminopropyl)benzenesulphonamide] | 50 to 100 | 17 | local anesthetic action (cornea of rabbits): a certain local anesthetic action
4 | COc1cc([N+](=O)[O-])c(Cl)cc1S(=O)(=O)NCCN1CCCCC1 [Ref. d] | > 100 | 16 | –
5 | CCN(CC)CCCNS(=O)(=O)c1cc(Cl)c([N+](=O)[O-])cc1OC [Ref. e] | > 100 | – | –
6 | CCN(CC)CCNS(=O)(=O)c1cc(Cl)c(N)cc1OC [Ref. f] | 50 to 100 | 13 | –
7 | COc1cc(N)c(Cl)cc1S(=O)(=O)NCCN1CCCCC1 [Ref. g] | 50 to 100 | 13 | –
8 | COc1cc(N)c(Cl)cc1S(=O)(=O)NCCCN(C)C [Ref. h] | > 100 | 9 | –
9 | CCN(CC)CCCNS(=O)(=O)c1cc(Cl)c(N)cc1OC [Ref. i, 2-methoxy-4-amino-5-chloro-N-(3-diethylaminopropyl)benzenesulphonamide] | 117 | 3 | antiemetic activity (apomorphine; in words, apomorphine 0.1 mg/kg s.c.): excellent; mice dead at the end of the test (of five in the batch) (pentetrazole; of the five mice): three; lethalness (pentetrazole; in words): a decrease in the lethalness
10 | COc1cc(N)c(Cl)cc1S(=O)(=O)NCCCN1CCOCC1 [Ref. j] | > 100 | 22 | –
11 | COc1ccc(Cl)cc1S(=O)(=O)NCCN(C)C [Ref. k] | > 100 | 22 | –
12 | CCN(CC)CCNS(=O)(=O)c1cc(Cl)ccc1OC [Ref. l] | > 100 | 8 | –
13 | CCN(CC)CCCNS(=O)(=O)c1cc(Cl)ccc1OC [Ref. m] | – | 12 | solubility (printed in Toxicity column) [2]: insoluble
14 | COc1ccc(S(N)(=O)=O)cc1S(=O)(=O)NCCN(C)C [Ref. n] | > 100 | – | –
15 | COc1cc(N)c(Cl)cc1S(=O)(=O)NCCCN1CCCCC1 [Ref. o] | 80 to 100 | – | –
